# In PMC6268785, “Inhibition of PCAF Histone Acetyltransferase, Cytotoxicity and Cell Permeability of 2-Acylamino-1-(3- or 4-Carboxy-phenyl)benzamides” (Molecules, 2012):
# Like-named read-outs stand apart in the source and are kept apart here.
# How the values were obtained:
# PCAF HAT = molecular target: T1, PCAF HAT (Homo sapiens, UniProt Q92831); assay: PCAF HAT inhibition assay (fluorescent, CPM detection of CoA-SH); type: biochemical; conditions: for inhibition at 100 µM: read-out: PCAF HAT inhibition (%)
# T1 construct: purchased Cayman Co., Ann Arbor, MI, USA
# Experimental: The structural analogues were derived from anthranilic acid by introducing the acyl chain at the 2- position, and 3- or 4-carboxyaniline at the 1-position, respectively. The ability of new compounds 8–19 to inhibit HAT activity was analyzed in vitro using PCAF HAT enzymatic kit (Cayman Co., Ann Arbor, MI, USA). Anacardic acid, a commercially available HAT inhibitor, was used as a positive control.
# The PCAF HAT inhibition studies were performed using a fluorescent assay as described previously. The enzyme activity was measured by the detection of CoA-SH by the fluorescent dye 7-(diethylamino)-3-(4'-maleimidylphenyl)-4-methylcoumarin (CPM). In brief, assay buffer (15 μL), acetyl CoA (5 μL) and diluted PCAF (10 μL) were added to all the wells. Dimethylsulfoxide (DMSO, 5 μL) was added to 100% initial activity wells and the background wells, and inhibitor (100 μM, 5 μL) was added to the inhibitor wells. PCAF HAT peptide (20 μL) was added to all the wells except the background wells. The wells were incubated on a shaker for 5 minutes at room temperature and HAT stop reagent (50 μL) was added to all the wells including the background wells. HAT peptide (20 μL) was added to the background wells only. HAT developer (100 μL) was added to all the wells including the background wells and incubated for 20 minutes at room temperature. Then, read the plate using an excitation wavelength of 360–390 nm and an emission wavelength of 450–470 nm. Subtract the fluorescence of the background wells from the fluorescence of the 100% initial activity and the inhibitor wells. The percent inhibition for each sample was determined as follows: [drawing 2]
# [1] = system: MDA-231 (human breast cancer); assay: SRB cytotoxicity assay, MDA-231; type: cell-based; conditions: read-out: IC50 against MDA-231
# Experimental: (§1) The cell lines used were HSF (normal cell), HT-29 (human colon cancer), HCT-116 (human colon cancer), MDA-231 (human breast cancer), A549 (human lung cancer), Hep3B (human hepatoma cancer), HeLa (human cervical cancer) and Caki (human kidney cancer) supplied from the Korean Cell Line Bank (Daejeon, Korea). Cells were grown as monolayer cultures in the T-175 flasks (Costar), were subcultured twice a week at 37 °C in an atmosphere containing 5% CO2 in air and 100% relative humidity and maintained at low passage number (5 to 20). RPMI medium 1640, Dulbecco’s modified eagle medium (DMEM, Gibco), fetal bovin serum, (FBS, Gibco), penicillin-streptomycin (P-S, Gibco), phosphate buffered saline pH 7.4 (PBS, Gibco), 0.25% trypsin-EDTA (Gibco), 0.4% trypan blue, dimethyl sulfoxide (DMSO) (Sigma-Aldrich), trichloroacetic acid (Sigma-Aldrich) and sulforhodamine B (SRB) (Sigma-Aldrich) were used.
# (§2) Adherent cells at the logarithmic growth phase were detached the by an addition of 3 mL of trypsin-EDTA (1:250) mixture, and they were incubated for 5 min at 37 °C. The cells were plated (200 μL per well) in 96 well flat-bottom microplates at densities of 3 × 10^3 cells per well. The cells were plated in sextuplicate (six replicate wells per cell density) and experiments were performed three times. Microplates were left for 6 h at 37 °C, so that the cells were able to attach to the bottom of the wells before the fixation protocol was carried out.
# (§3) […]. Then, cold (4 °C) 50% TCA (50 μL) was added to the top of 200 μL culture medium in each well to produce a final TCA concentration of 10%. Microplates were left for 30 min at 4 °C, and subsequently, they were washed five times with deionized water. Microplates were then left to dry at room temperature for at least 24 h.
# (§4) The SRB assay was carried out as previously described. In brief, 0.4% (w/v) sulforhodamine B (70 μL) in acetic acid solution were added to each well and left at room temperature for 20 min. SRB was removed and the plates washed five times with 1% acetic acid before air drying. Bound SRB was solubilized with 10 mM unbuffered Tris-base solution (200 μL) and the plates were left on a plate shaker for at least 10 min. Absorbance was read in a 96-well plate reader at 492 nm subtracting the background measurement at 620 nm. The test optical density (OD) value was defined as the absorbance of each individual well, minus the blank value.
# [2] = system: HCT-116 (human colon cancer); assay: SRB cytotoxicity assay, HCT-116; type: cell-based; conditions: read-out: IC50 against HCT-116
# Experimental: as §1, §2, §3, §4
# [3] = system: HeLa (human cervical cancer); assay: SRB cytotoxicity assay, HeLa; type: cell-based; conditions: mean ± standard error, read-out: IC50 against HeLa
# Experimental: as §1, §2, §3, §4
# [4] = system: Caki (human kidney cancer); assay: SRB cytotoxicity assay, Caki; type: cell-based; conditions: mean ± standard error, read-out: IC50 against Caki
# Experimental: as §1, §2, §3, §4
# HSF (normal cell) = assay: SRB cytotoxicity assay, HSF normal cell line; type: cell-based; conditions: read-out: IC50 against HSF
# Experimental: as §1, §2, §3, §4
# [5] = system: Hep3B (human hepatoma cancer); assay: SRB cytotoxicity assay, Hep3B; type: cell-based; conditions: mean ± standard error, read-out: IC50 against Hep3B
# Experimental: as §1, §2, §3, §4
# A549 (human lung cancer) = assay: SRB cytotoxicity assay, A549; type: cell-based; conditions: read-out: IC50 against A549
# Experimental: as §1, §2, §3, §4
# [6] = system: HT-29 (human colon cancer); assay: SRB cytotoxicity assay, HT-29; type: cell-based; conditions: read-out: IC50 against HT-29
# Experimental: as §1, §2, §3, §4
# Caco-2 cell monolayers = assay: Caco-2 cell permeability assay; type: in vitro ADME, human; conditions: Caco-2, apical to basolateral, initial concentration 50 μM; mean ± SD
# [7] = system: seven human cancer cell lines; assay: SRB cytotoxicity assay, panel of seven cancer cell lines (summary in words); type: cell-based
# Experimental: as §1
# Adherent cells at the logarithmic growth phase were detached the by an addition of 3 mL of trypsin-EDTA (1:250) mixture, and they were incubated for 5 min at 37 °C. […]
# The SRB assay was carried out as previously described. […] Absorbance was read in a 96-well plate reader at 492 nm subtracting the background measurement at 620 nm. The test optical density (OD) value was defined as the absorbance of each individual well, minus the blank value.
# [8] = Homo sapiens, MDA-MB-231, mean ± standard error
# [9] = Homo sapiens, HCT-116, mean ± standard error
# [10] = Homo sapiens, A549, mean ± standard error
# [11] = Homo sapiens, HT-29, mean ± standard error
# T1 sequence (Q92831 492-658 limits assumed): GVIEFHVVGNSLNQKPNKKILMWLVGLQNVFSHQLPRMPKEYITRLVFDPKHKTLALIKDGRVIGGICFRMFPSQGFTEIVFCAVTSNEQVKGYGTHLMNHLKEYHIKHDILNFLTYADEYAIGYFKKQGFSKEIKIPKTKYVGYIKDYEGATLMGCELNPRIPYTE
Compound,PCAF HAT inhibition (%) (PCAF HAT; 100 μM compound),IC50 ([1]; mean ± standard error) [µM],IC50 ([2]; mean ± standard error) [µM],IC50 [3] [µM],IC50 [4] [µM],IC50 (HSF (normal cell)) [µM],IC50 [5] [µM],IC50 (A549 (human lung cancer); mean ± standard error) [µM],IC50 ([6]; mean ± standard error) [µM],further results
2-Hexadecanoylamino-1-(3-carboxyphenyl)benzamide [Compound 19],,> 100,40.3 ± 4.3,36.9 ± 3.76,82.6 ± 5.89,> 100,43.8 ± 5.91,40.5 ± 3.59,44.8 ± 2.98,"PCAF HAT inhibition (%) (PCAF HAT; 100 μM compound, 100 µM): 61%"
2-Hexanoylamino-1-(3-carboxyphenyl)benzamide [Compound 9],,> 100,> 100,,> 100,> 100,> 100,> 100,> 100,
2-Hexanoylamino-1-(4-carboxyphenyl)benzamide [Compound 8],67,> 100,> 100,,> 100,> 100,> 100,> 100,> 100,
2-Octanoylamino-1-(3-carboxyphenyl)benzamide [Compound 11],,> 100,> 100,> 100,> 100,> 100,> 100,> 100,> 100,"PCAF HAT inhibition (%) (PCAF HAT; 100 μM compound, 100 µM): 52%"
2-Tetradecanoylamino-1-(3-carboxyphenyl)benzamide [Compound 17],79,62.43 ± 0.58,29.2 ± 3.86,55 ± 3.14,55.9 ± 5.09,> 100,57.52 ± 0.26,32.1 ± 1.36,54.9 ± 3.49,Measured Papp (Caco-2 cell monolayers): 71.48 ± 4.67 ×10^−6 cm/s
2-Tetradecanoylamino-1-(4-carboxyphenyl)benzamide [Compound 16],72,79.1 ± 3.27,43.9 ± 2.39,56.5 ± 0.87,63.08 ± 0.21,> 100,73.3 ± 9.61,46.2 ± 0.83,54.8 ± 1.05,Measured Papp (Caco-2 cell monolayers): 68.21 ± 3.56 ×10^−6 cm/s
"Nc1ccccc1C(=O)O [A, Anthranilic acid, reference compound]",,,,,,> 100,,,,"inhibition at 100 µM (PCAF HAT): 34%; IC50 [1, 8]: > 100 µM; cytotoxic activity against cancer cell lines (in words) [7]: inactive against most of cancer cell lines; IC50 [2, 9]: > 100 µM; IC50 ([3]; Homo sapiens, HeLa): > 100 µM; IC50 ([4]; Homo sapiens): > 100 µM; IC50 ([5]; Homo sapiens, Hep3B): > 100 µM; IC50 (A549 (human lung cancer); [10]): > 100 µM; IC50 [6, 11]: > 100 µM"
"CCCCCCCCCCCCCCCc1cccc(O)c1C(=O)O [AA, Anacardic acid, reference compound]",,,,,,> 100,,,,"inhibition at 100 µM (PCAF HAT; 100 μM compound): 68%; IC50 [1, 8]: 44.3 ± 4.2 µM; IC50 [2, 9]: 96.3 ± 4.33 µM; IC50 ([4]; Homo sapiens): > 100 µM; IC50 ([5]; Homo sapiens, Hep3B): > 100 µM; IC50 (A549 (human lung cancer); [10]): 70.76 ± 0.41 µM; IC50 [6, 11]: 60.4 ± 6.36 µM"

# The next lines start with results.
PCAF HAT inhibition (%) (PCAF HAT; 100 μM compound),Compound,IC50 ([1]; mean ± standard error) [µM],IC50 ([2]; mean ± standard error) [µM],IC50 [3] [µM],IC50 [4] [µM],IC50 (HSF (normal cell)) [µM],IC50 [5] [µM],IC50 (A549 (human lung cancer); mean ± standard error) [µM],IC50 ([6]; mean ± standard error) [µM],further results
45,2-Decanoylamino-1-(3-carboxyphenyl)benzamide [Compound 13],> 100,> 100,> 100,> 100,> 100,> 100,> 100,> 100,
55,2-Decanoylamino-1-(4-carboxyphenyl)benzamide [Compound 12],> 100,> 100,> 100,63.8 ± 2.39,> 100,> 100,> 100,> 100,
42,2-Dodecanoylamino-1-(3-carboxyphenyl)benzamide [Compound 15],> 100,> 100,> 100,> 100,> 100,> 100,> 100,> 100,
46,2-Dodecanoylamino-1-(4-carboxyphenyl)benzamide [Compound 14],> 100,53.3 ± 2.05,> 100,> 100,> 100,> 100,> 100,> 100,
66,2-Octanoylamino-1-(4-carboxyphenyl)benzamide [Compound 10],51.8 ± 0.68,> 100,> 100,69.5 ± 7.16,> 100,> 100,> 100,> 100,
